Results from ChEMBL document CHEMBL1149579, “N-(5-chloro-2-(hydroxymethyl)-N-alkyl-arylsulfonamides as gamma-secretase inhibitors” (Bioorg Med Chem Lett, 2007).

Biological target: Gamma-secretase
Experiment: Inhibition of gamma secretase-mediated beta-APP cleavage in human H4 cells assessed by measuring Abeta40 production by ELISA
Assay type: cell-based
Conditions: not given

Row | SMILES | IC50 [nM]
1 | CCN(c1cc(Cl)ccc1CO)S(=O)(=O)c1ccc(Cl)cc1 | 13
2 | CC(CCF)N(c1cc(Cl)ccc1CO)S(=O)(=O)c1ccc(Cl)cc1 (centres undefined) | 25
3 | CCCC(C)N(c1cc(Cl)ccc1CO)S(=O)(=O)c1ccc(F)cc1 (centres undefined) | 66
4 | CCCC(C)N(c1cc(Cl)ccc1CO)S(=O)(=O)c1ccc(Cl)cc1 (centres undefined) | 19
5 | CCCC(C)N(c1cc(Cl)ccc1CO)S(=O)(=O)c1ccc(C(F)(F)F)cc1 (centres undefined) | 72
6 | CCCC(C)N(c1cc(Cl)ccc1CO)S(=O)(=O)c1ccc(C#N)cc1 (centres undefined) | 180
7 | CC(C1CC1)N(c1cc(Cl)ccc1CO)S(=O)(=O)c1ccc(Cl)cc1 (centres undefined) | 49
8 | CCCC(C)N(c1cc(Cl)ccc1CO)S(=O)(=O)c1ccc(Cl)c(Cl)c1 (centres undefined) | 240
9 | CCCC(C)N(c1cc(Cl)ccc1CO)S(=O)(=O)c1ccc(Cl)cc1Cl (centres undefined) | 560
10 | CC(c1ccc(Cl)cc1)N(c1cc(Cl)ccc1CO)S(=O)(=O)c1ccc(Cl)cc1 (centres undefined) | 22
11 | CCCN(c1cc(Cl)ccc1CO)S(=O)(=O)c1ccc(C)cc1 | 750
12 | CCCCN(c1cc(Cl)ccc1CO)S(=O)(=O)c1ccc(C)cc1 | 1300
13 | Cc1ccc(S(=O)(=O)N(CC(C)C)c2cc(Cl)ccc2CO)cc1 | 700
14 | Cc1ccc(S(=O)(=O)N(CCC(C)(C)C)c2cc(Cl)ccc2CO)cc1 | 2000
15 | CCCC(C)N(c1cc(Cl)ccc1CO)S(=O)(=O)c1ccc(C)cc1 (centres undefined) | 40
16 | Cc1ccc(S(=O)(=O)N(c2cc(Cl)ccc2CO)C(C)CC(C)(C)C)cc1 (centres undefined) | 350
17 | Cc1ccc(S(=O)(=O)N(c2cc(Cl)ccc2CO)C(C)C2CCCCC2)cc1 (centres undefined) | 190
18 | CCC(CC)N(c1cc(Cl)ccc1CO)S(=O)(=O)c1ccc(C)cc1 | 1000
19 | CCCC(C)N(c1cc(Cl)ccc1CO)S(=O)(=O)c1ccccc1 (centres undefined) | 1200
20 | CCCC(C)N(c1cc(Cl)ccc1CO)S(=O)(=O)c1ccc(C(C)C)cc1 (centres undefined) | 720
21 | CC(Cc1ccccc1)N(c1cc(Cl)ccc1CO)S(=O)(=O)c1ccc(Cl)cc1 (centres undefined) | 41
22 | CC(C1CCC1)N(c1cc(Cl)ccc1CO)S(=O)(=O)c1ccc(Cl)cc1 (centres undefined) | 12
23 | CC(C1CCCC1)N(c1cc(Cl)ccc1CO)S(=O)(=O)c1ccc(Cl)cc1 (centres undefined) | 14

Row | SMILES | IC50 [nM]
24 | C/C=C/C(C)N(c1cc(Cl)ccc1CO)S(=O)(=O)c1ccc(Cl)cc1 (centres undefined) | 140
25 | CC[C@H](C)N(c1cc(Cl)ccc1CO)S(=O)(=O)c1ccc(C)cc1 | 1300
26 | CC[C@@H](C)N(c1cc(Cl)ccc1CO)S(=O)(=O)c1ccc(C)cc1 | 100
27 | CCC[C@H](C)N(c1cc(Cl)ccc1CO)S(=O)(=O)c1ccc(C)cc1 | 3700
28 | C[C@H](CCc1ccccc1)N(c1cc(Cl)ccc1CO)S(=O)(=O)c1ccc(Cl)cc1 | 4
29 | CCCC[C@@H](C)N(c1cc(Cl)ccc1CO)S(=O)(=O)c1ccc(Cl)cc1 | 5
30 | CCC[C@@H](C)N(c1cc(Cl)ccc1CO)S(=O)(=O)c1ccc(C)cc1 | 24
31 | C=CC[C@@H](C)N(c1cc(Cl)ccc1CO)S(=O)(=O)c1ccc(Cl)cc1 | 14
32 | CCCC(C)N(c1cc(Cl)ccc1CO)S(=O)(=O)c1c(Cl)cc(Cl)cc1Cl (centres undefined) | > 25000
33 | CC(c1ccc2ccccc2c1)N(c1cc(Cl)ccc1CO)S(=O)(=O)c1ccc(Cl)cc1 (centres undefined) | 100
34 | CC(C1CCCCC1)N(c1cc(Cl)ccc1CO)S(=O)(=O)c1ccc(Cl)cc1 (centres undefined) | 33
35 | Cc1ccc(S(=O)(=O)N(CC2CCCCC2)c2cc(Cl)ccc2CO)cc1 | 1000
36 | CCCCN(c1cc(Cl)ccc1CO)S(=O)(=O)c1ccc(Cl)cc1 | 140
37 | CCCC(C)N(c1cc(Cl)ccc1CO)S(=O)(=O)c1ccc(OC)cc1 (centres undefined) | 1300
38 | CC(C)CC(C)N(c1cc(Cl)ccc1CO)S(=O)(=O)c1ccc(Cl)cc1 (centres undefined) | 23
39 | CC(CCCF)N(c1cc(Cl)ccc1CO)S(=O)(=O)c1ccc(Cl)cc1 (centres undefined) | 7
40 | CCN(c1cc(Cl)ccc1CO)S(=O)(=O)c1ccc(C)cc1 | 1100
41 | C=C(C)CN(c1cc(Cl)ccc1CO)S(=O)(=O)c1ccc(C)cc1 | 400
42 | CCCC(C)N(c1cc(Cl)ccc1CO)S(=O)(=O)c1ccc(CC)cc1 (centres undefined) | 360
43 | CCCC(C)N(c1cc(Cl)ccc1CO)S(=O)(=O)c1ccc(Br)cc1 (centres undefined) | 56
44 | Cc1ccc(S(=O)(=O)N(CCCC(C)C)c2cc(Cl)ccc2CO)cc1 | 920
45 | CCCC(C)N(c1cc(Cl)ccc1CO)S(=O)(=O)c1cccc(C)c1 (centres undefined) | 1200

System: not listed separately
Experiment: Drug level in Tg2576 betaAPP swedish transgenic mouse plasma at 500 umol/kg, po after 3 hrs
Assay type: ADME, organism-based
Conditions: not given

Row | SMILES | concentration at 3 h [µM]
46 | CCC[C@@H](C)N(c1cc(Cl)ccc1CO)S(=O)(=O)c1ccc(Cl)cc1 | 1.6

System: not listed separately
Experiment: Drug level in Tg2576 betaAPP swedish transgenic mouse brain at 500 umol/kg, sc twice a day for 5 days
Assay type: ADME, organism-based
Conditions: read-out: Drug uptake

Row | SMILES | concentration at 120 h [µM]
47 | CCC[C@@H](C)N(c1cc(Cl)ccc1CO)S(=O)(=O)c1ccc(Cl)cc1 | 14

System: not listed separately
Experiment: Protein binding in rat plasma at 10 ug/mL
Assay type: ADME, cell-free
Conditions: read-out: PPB

Row | SMILES | fraction unbound at 10 ug/mL
48 | CCC[C@@H](C)N(c1cc(Cl)ccc1CO)S(=O)(=O)c1ccc(Cl)cc1 | < 0.01

System: Mus musculus
Experiment: Decrease in amyloid beta level in Tg2576 betaAPP swedish transgenic mouse brain at 500 umol/kg, sc twice a day for 5 days
Assay type: functional
Design: scale not given: the % may be the effect or the level left
Conditions: not given

Row | SMILES | Activity [%]
49 | CCC[C@@H](C)N(c1cc(Cl)ccc1CO)S(=O)(=O)c1ccc(Cl)cc1 | 38

System: not listed separately
Experiment: Drug level in Tg2576 betaAPP swedish transgenic mouse brain at 500 umol/kg, po after 3 hrs
Assay type: ADME, organism-based
Conditions: read-out: Drug uptake

Row | SMILES | concentration at 3 h [µM]
50 | CCC[C@@H](C)N(c1cc(Cl)ccc1CO)S(=O)(=O)c1ccc(Cl)cc1 | 5.2

System: not listed separately
Experiment: Protein binding in mouse plasma at 10 ug/mL
Assay type: ADME, cell-free
Conditions: read-out: PPB

Row | SMILES | fraction unbound at 10 ug/mL
51 | CCC[C@@H](C)N(c1cc(Cl)ccc1CO)S(=O)(=O)c1ccc(Cl)cc1 | < 0.01

System: Mus musculus
Experiment: Decrease in amyloid beta level in Tg2576 betaAPP swedish transgenic mouse brain at 500 umol/kg, po after 3 hrs
Assay type: functional
Design: scale not given: the % may be the effect or the level left
Conditions: not given

Row | SMILES | Activity [%]
52 | CCC[C@@H](C)N(c1cc(Cl)ccc1CO)S(=O)(=O)c1ccc(Cl)cc1 | 25

System: not listed separately
Experiment: Protein binding in human plasma at 10 ug/mL
Assay type: ADME, cell-free
Conditions: read-out: PPB

Row | SMILES | fraction unbound at 10 ug/mL
53 | CCC[C@@H](C)N(c1cc(Cl)ccc1CO)S(=O)(=O)c1ccc(Cl)cc1 | < 0.01

System: not listed separately
Experiment: Drug level in Tg2576 betaAPP swedish transgenic mouse plasma at 500 umol/kg, sc twice a day for 5 days
Assay type: ADME, organism-based
Conditions: not given

Row | SMILES | concentration at 120 h [µM]
54 | CCC[C@@H](C)N(c1cc(Cl)ccc1CO)S(=O)(=O)c1ccc(Cl)cc1 | 21
